# According to publication PMC3620387, “Targeting the EGFR/PCNA Signaling Suppresses Tumor Growth of Triple-Negative Breast Cancer Cells with Cell-Penetrating PCNA Peptides” (PLoS ONE, 2013):
# Legend:
# [1] = system: MDA-MB 468 cells; assay: WST-1 cell viability assay; format: cell-based, human; details: 24 h
# Procedure: (§1) Cell viability was determined by WST-1 (4-[3-(4-Iodophenyl)-2-(4-nitrophenyl) -2H-5-tetrazolio]-1,3-benzene disulfonate) assay (Roche). Cells were incubated with or without TKI or CPPP. After culturing for another 24 h, one-tenth volume of WST-1 was added at 4 h before harvest, and the absorbance was detected at 450 nm. Cell viability was normalized by the absorbance from the cells without treatment.
# [2] = system: MDA-MB 468 cells; assay: Apoptosis assay, Annexin V staining, flow cytometry; format: cell-based, human; details: 24 h
# Procedure: (§2) For apoptosis assay using annexin V staining, cells treated with the CPPP for 24 h and the cells were harvested and resuspended in the binding buffer and then incubated with FITC-conjugated Annexin V and propidium iodide (PI), according to the manufacturer's protocol (BD Biosciences). The percentage of apoptotic cells were assessed by flow cytometry.
# [3] = system: MDA-MB 468 cells; assay: Subcutaneous MDA-MB 468 xenograft; format: in vivo, nude mice; details: 200 nmol/mouse, intratumoral injection; for tumor volume compared with control or scrambled peptides / tumor mass compared with control or scrambled peptide group: nude mice; for tumor volume compared with control or scrambled peptides: Fig. 5A, S1A; for tumor mass compared with control or scrambled peptide group: end of experiment, Fig. 5B, S1B
# Procedure: (§3) For subcutaneous implantation, MDA-MB 468 cells (1×10^7 in 100 µL of sterile Dulbecco's phosphate-buffered saline; PBS) were inoculated into nude mice by subcutaneous injection into the flanks. Each group contained 4 mice that were inoculated with tumor cells on both flanks (n = 8). When the tumors were palpable, mice were grouped randomly into 3–4 groups with 4 mice in each group. The mice were then treated with control vehicle, control scrambled peptide, Y211F CPPP, RF6 CPPP, or D-RF6 CPPP, by intratumoral injection. For orthotopic implantation, tumor xenografts were established by injection of Iressa-resistant MDA-MB 468 (IR) cells (1×10^7 resuspended in a 1∶1 mixture of PBS and Matrigel (BD Biosciences) in a total volume of 100 µL) into the mammary fat pad on either side of each 6–8-week old female severe combined immunodeficient (SCID) mice, respectively. When the tumors were palpable, the mice bearing IR tumor xenografts were treated with control vehicle, control scrambled peptide, D-RF6 CPPP (200 nmol/mouse) by intraperitoneal injection. Tumor growth was monitored 3 times/week for five weeks by measuring tumor perpendicular diameters. Tumor volume (V) was calculated using the following formula: V = length×diameter^2×0.5.
# (§4) Figure 5 The effect of CPPP on tumor growth in vivo. (A) Approximately 1×10^7 MDA-MB 468 cells were subcutaneously injected into the flanks of nude mice. When the tumors were palpable, mice were randomly divided into 4 groups and treated with PBS (Control), scrambled peptide for RF6 (Scramble), RF6 CPPP, or D-RF6 CPPP (200 nmol/mouse) by intratumoral injection. Tumor volume was measured the tumor volume at the indicated time point. (B) The weight of each of the harvested tumors from (A) was measured after treatment. (C) Approximately 1×10^7 Iressa-resistant MDA-MB 468 (MDA-MB 468/IR) cells were injected into the mammary fat pad on either side of SCID mice. When the tumors were palpable, mice were randomly divided into 3 groups and treated with PBS (Control), scrambled peptide for D-RF6 (Scramble), or D-RF6 CPPP (200 nmol/mouse) by intratumoral injection. Tumor volume was measured the tumor volume at the indicated time point. (D) The weight of each of the harvested tumors from (C) was measured after treatment. The curves and bars indicate mean ± S.D.; *, p<0.05; **, p<0.01; ***, p<0.001 by t-test. (E) Extracted tumor tissue lysates from (D), the protein levels of EGFR, p-Y211, PCNA and cleaved-caspase-3 were determined by IB.
# Supplementary file pone.0061362.s001.tif: Figure S1 The effect of Y211F CPPP on tumor growth in vivo. (A) Approximately 1×10^7 MDA-MB 468 cells were subcutaneously injected into the flanks of nude mice. When the tumors were palpable, mice were randomly divided into 3 groups and treated with PBS (Control), scrambled peptide for Y211 (Scramble), or Y211F CPPP (200 nmol/mouse) by intratumoral injection. Tumor volume was measured the tumor volume at the indicated time point. (B) The weight of each of the harvested tumors was measured after treatment. The curves and bars indicate mean ± S.D.; *, p<0.05; **, p<0.01; ***, p<0.001 by t-test. (TIF) Click here for additional data file.
# [4] = system: MDA-MB 231 cells; assay: WST-1 cell viability assay; format: cell-based, human; details: 24 h
# Procedure: as §1
# [5] = system: MDA-MB 231 cells; assay: Apoptosis assay, Annexin V staining, flow cytometry; format: cell-based, human; details: 15 µM, 24 h
# Procedure: as §2
# [6] = system: Iressa-resistant MDA-MB 468 (MDA-MB 468/IR) cells; assay: Orthotopic Iressa-resistant MDA-MB 468 xenograft (mammary fat pad); format: in vivo, SCID mice
# Procedure: as §3, §4
# [7] = system: MCF10A; assay: WST-1 cell viability assay; format: cell-based; details: up to 50 µM, 24 h, WST-1, Fig. 1B
# Procedure: as §1
# [8] = molecular target: T1, nEGFR/PCNA (Homo sapiens, UniProt P00533); assay: Immunoprecipitation/immunoblot of chromatin lysates: nEGFR binding to PCNA; format: cell-based; details: 30 µM, 24 h, IP anti-PCNA, IB, Fig. 2B
# T1 construct: endogenous in cells; host or cells: MDA-MB 468 human TNBC cells (chromatin lysates)
# Procedure: Cell extraction, immunoprecipitation and Western blotting were performed as described previously, [29].
# The fluorescent images were observed under a confocal microscopy.
# [9] = system: Iressa-resistant MDA-MB 468 (IR); assay: WST-1 cell viability assay; format: cell-based, human; details: 15 µM, 24 h, Fig. 3E
# Procedure: (§5) Human triple-negative breast cancer (TNBC) cell lines (MDA-MB 468, and MDA-MB 231) were purchased from American Type Culture Collection. All cells were maintained in DMEM/F12 (1∶1) with 10% FBS. EGFR TKI-resistant TNBC cell lines: Iressa-resistant MDA-MB 468 (IR) and Tarceva-resistant MDA-MB 468 (TR) were established by treatment with gradually increasing concentrations of these drugs for over one month. These TKI-resistant clones were cultured in the presence of 1 µM TKIs. The following peptides were synthesized by MDBio, Inc: Y211F CPPP (Y211F; […]); AK10 CPPP (AK10; […]); TF10 CPPP (TF10; […]); TN8 CPPP (TN8; […]); RK8 CPPP (RK8; […]); RF6 CPPP (RF6; […]); D-RF6 CPPP (D-RF6; […]); Scrambled peptides for Y211F (Scramble; […]); Scrambled peptides for RF6 (Scramble; […]). […]
# (§6) Cell viability was determined by WST-1 (4-[3-(4-Iodophenyl)-2-(4-nitrophenyl) -2H-5-tetrazolio]-1,3-benzene disulfonate) assay (Roche). […] After culturing for another 24 h, one-tenth volume of WST-1 was added at 4 h before harvest, and the absorbance was detected at 450 nm. Cell viability was normalized by the absorbance from the cells without treatment.
# (§7) Figure 3 The cytotoxic effect of CPPP in TKI-resistant TNBC cells. […] (E–F) The P-, IR-, or TR-TNBC cells were treated with 15 µM Y211F CPPP for 24 h and the relative cell viability (E) and Annexin V-positive cells (F) were determined. […]
# [10] = system: Tarceva-resistant MDA-MB 468 (TR); assay: WST-1 cell viability assay; format: cell-based, human; details: 15 µM, 24 h, Fig. 3E
# Procedure: as §5, §6, §7
# [11] = system: Iressa-resistant MDA-MB 468 (IR); assay: Apoptosis assay, Annexin V staining; format: cell-based, human; details: 15 µM, 24 h, Fig. 3F
# Procedure: as §5, §2, §7
# [12] = system: Tarceva-resistant MDA-MB 468 (TR); assay: Apoptosis assay, Annexin V staining; format: cell-based, human; details: 15 µM, 24 h, Fig. 3F
# Procedure: as §5, §2, §7
# [13] = system: MDA-MB 468 cells; details: 30 µM FITC-labeled peptide, 12 h, anti-EGFR staining, confocal microscopy, Fig. 2A
# Procedure: Confocal microscopy was performed as previously described [29].
# (A) MDA-MB 468 cells were treated with 30 µM FITC-labeled scrambled (FITC-Scrambled; top) or Y211F CPPP (FITC-Y211F; bottom) for 12 h. Subsequently, cells were fixed, permeabilized, and stained with anti-EGFR antibody or DAPI. The fluorescent images were observed under a confocal microscopy. The FITC-labeled peptide (green), EGFR (red), and nucleus (blue) are shown.
# [14] = extracted tumor tissue lysates, IB, Fig. 5E
# [15] = 15 µM Y211F CPPP combined with 1∼8 µM EGFR TKI (Tarceva or Iressa), Fig. 2C-2F
# [16] = indicated concentrations, WST-1, Fig. 1B
sequence,measurement,setting,value
YGRKKRRQRRRGRFLNFF [RF6 CPPP],relative cell viability,"[1]; 50 µM of each CPPP derivative, Fig. 4B",minimal effective peptide
same,apoptosis (Annexin V-positive cells),"[2]; 50 µM of each CPPP derivative, Fig. 4C",minimal effective peptide
same,tumor volume compared with control or scrambled peptides,[3],significantly reduced tumor volume
same,tumor mass compared with control or scrambled peptide group,[3],significantly smaller tumor mass
"YGRKKRRQRRRGRFLNFF [D-RF6 CPPP, synthetic retro-inverted D form derivative of RF6 CPPP]",growth suppression (relative cell viability) compared with RF6 CPPP,"[4]; indicated concentrations, Fig. 4F",enhanced the growth suppression
same,growth suppression (relative cell viability) compared with RF6 CPPP,"[1]; indicated concentrations, Fig. 4E",enhanced the growth suppression
same,apoptosis activity (Annexin V-positive cells),[5]; Fig. 4G,enhanced the growth suppression and apoptosis activity
same,apoptosis activity (Annexin V-positive cells),"[2]; 15 µM, flow cytometry, Fig. 4G",enhanced the growth suppression and apoptosis activity
same,"activity in suppressing tumor growth and reducing tumor volume, on an equimolar basis",[3]; compared with Y211F CPPP,more potent than Y211F CPPP
same,tumor mass compared with control or scrambled peptides,"[6]; 200 nmol/mouse, SCID mice, harvested tumors, Fig. 5D",significantly reduced tumor volume and mass
same,tumor volume compared with control or scrambled peptides,"[6]; 200 nmol/mouse, SCID mice, intratumoral (Fig. 5C legend) or intraperitoneal (methods) injection",significantly reduced tumor volume and mass
same,PCNA Y211 phosphorylation in tumor tissue,[6]; [14],inhibited
same,cleaved caspase-3 in tumor tissue,[6]; [14],cleaved caspase-3 increased
YGRKKRRQRRRGTFALRFLNFFTK [Y211F CPPP],"relative cell viability, combination with EGFR TKI",[4]; [15],enhanced the effect of both TKIs
same,cancer cells killed,"[4]; 50 µM, WST-1, Fig. 1B",more than 80%
same,relative cell viability,[4]; [16],suppressed cell viability
same,"relative cell viability, combination with EGFR TKI",[1]; [15],enhanced the effect of both TKIs
same,cancer cells killed,"[1]; 50 µM, WST-1, Fig. 1B",more than 80%
same,relative cell viability,[1]; [16],suppressed cell viability
same,relative cell viability,[7],no effect
same,apoptotic response (Annexin V-positive cells),[5]; Fig. 1C,observed only in MDA-MB 468 and MDA-MB 231 cells
same,apoptotic response (Annexin V-positive cells),"[2]; 15 µM, flow cytometry, Fig. 1C",observed only in MDA-MB 468 and MDA-MB 231 cells
same,nEGFR binding to PCNA on chromatin,[8],prevented nEGFR from binding PCNA
same,relative cell viability compared with parental cells,[9],more sensitive
same,relative cell viability compared with parental cells,[10],more sensitive
same,Annexin V-positive cells compared with parental cells,[11],more sensitive
same,Annexin V-positive cells compared with parental cells,[12],more sensitive
same,tumor volume compared with control or scrambled peptides,[3],significantly reduced tumor volume
same,tumor mass compared with control or scrambled peptide group,[3],significantly smaller tumor mass
same,targeting of EGFR,[13],specifically targeted EGFR
